In US9695155B2, “Herbicidal substituted pyrimidinyloxy benzene compounds” (E. I. DU PONT DE NEMOURS AND COMPANY, priority 2013, dated 2017):

What was measured:
Assay in all cases: Test E postemergence
[1] = tested on: waterhemp_RES2 (ALS & HPPD resistant common waterhemp); format: in vivo, Amaranthus rudis
From the text: (§1) Seeds of plant species selected from corn (Zea mays), soybean (Glycine max), velvetleaf (Abutilon theophrasti), lambsquarters (Chenopodium album), wild poinsettia (Euphorbia heterophylla), palmer pigweed (Amaranthus palmeri), waterhemp (common waterhemp, Amaranthus rudis), surinam grass (Brachiaria decumbens), large (Lg) crabgrass (Digitaria sanguinalis), Brazilian crabgrass (Digitaria horizontalis), fall panicum (Panicum dichotomiflorum), giant foxtail (Setaria faberii), green foxtail (Setaria viridis), goosegrass (Eleusine indica), johnsongrass (Sorghum halepense), ragweed (common ragweed, Ambrosia elatior), barnyardgrass (Echinochloa crus-galli), sandbur (southern sandbur, Cenchrus echinatus), arrowleaf sida (Sida rhombifolia), Italian ryegrass (Lolium multiflorum), dayflower (Virginia (VA) dayflower, Commelina virginica), field bindweed (Convolvulus arvensis), morningglory (Ipomoea coccinea), nightshade (eastern black nightshade, Solanum ptycanthum), kochia (Kochia scoparia), yellow nutsedge (Cyperus esculentus), cocklebur (common cocklebur, Xanthium strumarium), smartweed (ladysthumb smartweed, and hairy beggarticks (Bidens pilosa), were planted into a silt loam soil and treated preemergence with test chemicals formulated in a non-phytotoxic solvent mixture which included a surfactant.
(§2) At the same time, plants from these crop and weed species and also horseweed (Canada horseweed, Conyza canadensis), waterhemp_RES1, (ALS & Triazine resistant common waterhemp, Amaranthus rudis), and waterhemp_RES2, (ALS & HPPD resistant common waterhemp, Amaranthus rudis) were planted in pots containing Redi-Earth® planting medium (Scotts Company, 14111 Scottslawn Road, Marysville, Ohio 43041) comprising spaghnum peat moss, vermiculite, wetting agent and starter nutrients were treated with postemergence applications of test chemicals formulated in the same manner. Plants ranged in height from 2 to 18 cm for postemergence treatments (1- to 4-leaf stage). Treated plants and controls were maintained in a greenhouse for 14 to 21 days, after which time all species were compared to controls and visually evaluated. Plant response ratings, summarized in Table E, are based on a scale of 0 to 100 where 0 is no effect and 100 is complete control. A dash (-) response means no test result.

[2] = tested on: waterhemp; format: in vivo, Amaranthus rudis
From the text: as §1, §2

[3] = tested on: fall panicum; format: in vivo, Panicum dichotomiflorum
From the text: as §1, §2

[4] = tested on: barnyardgrass; format: in vivo, Echinochloa crus-galli
From the text: as §1, §2

[5] = tested on: dayflower; format: in vivo, Commelina virginica
From the text: as §1, §2

[6] = tested on: hairy beggarticks; format: in vivo, Bidens pilosa
From the text: as §1, §2

[7] = Postemergence, 31 g ai/ha, scale 0 to 100
[8] = Postemergence, 62 g ai/ha, scale 0 to 100
[9] = Postemergence, 125 g ai/ha, scale 0 to 100
[10] = Postemergence, 250 g ai/ha, scale 0 to 100
[11] = postemergence, 16 g ai/ha, scale 0 to 100, 0 no effect, 100 complete control
[12] = postemergence, 8 g ai/ha, scale 0 to 100, 0 no effect, 100 complete control

Fc1cnc(Oc2ccccc2-n2cc(Br)cn2)nc1 [Compound 10, 2-[2-(4-bromo-1H-pyrazol-1-yl)phenoxy]-5-fluoropyrimidine]
pest or weed control at 31 g/ha ([1]; Amaranthus tuberculatus, post-emergence, Postemergence, 31 g ai/ha, scale 0 to 100, read-out: Plant response rating, Waterhemp_RES2): 60%
pest or weed control at 62 g/ha ([1]; Amaranthus tuberculatus, post-emergence, Postemergence, 62 g ai/ha, scale 0 to 100, read-out: Plant response rating, Waterhemp_RES2): 75%
pest or weed control at 125 g/ha ([1]; Amaranthus tuberculatus, post-emergence, Postemergence, 125 g ai/ha, scale 0 to 100, read-out: Plant response rating, Waterhemp_RES2): 80%
pest or weed control at 250 g/ha ([1]; Amaranthus tuberculatus, post-emergence, Postemergence, 250 g ai/ha, scale 0 to 100, read-out: Plant response rating, Waterhemp_RES2): 90%
pest or weed control at 16 g/ha ([1]; Amaranthus tuberculatus, post-emergence, postemergence, 16 g ai/ha, scale 0 to 100, 0 no effect, 100 complete control, read-out: Plant response rating, Waterhemp_RES2): 50%
pest or weed control at 31 g/ha ([2]; Amaranthus tuberculatus, post-emergence, Postemergence, 31 g ai/ha, scale 0 to 100, read-out: Plant response rating, Waterhemp): 80%
pest or weed control at 62 g/ha ([2]; Amaranthus tuberculatus, post-emergence, Postemergence, 62 g ai/ha, scale 0 to 100, read-out: Plant response rating, Waterhemp): 85%
pest or weed control at 125 g/ha ([2]; Amaranthus tuberculatus, post-emergence, Postemergence, 125 g ai/ha, scale 0 to 100, read-out: Plant response rating, Waterhemp): 95%
pest or weed control at 250 g/ha ([2]; Amaranthus tuberculatus, post-emergence, Postemergence, 250 g ai/ha, scale 0 to 100, read-out: Plant response rating, Waterhemp): 95%
pest or weed control at 31 g/ha ([3]; Panicum dichotomiflorum, post-emergence, Postemergence, 31 g ai/ha, scale 0 to 100, read-out: Plant response rating, Panicum, Fall): 0%
pest or weed control at 62 g/ha ([3]; Panicum dichotomiflorum, post-emergence, Postemergence, 62 g ai/ha, scale 0 to 100, read-out: Plant response rating, Panicum, Fall): 0%
pest or weed control at 125 g/ha ([3]; Panicum dichotomiflorum, post-emergence, Postemergence, 125 g ai/ha, scale 0 to 100, read-out: Plant response rating, Panicum, Fall): 0%
pest or weed control at 250 g/ha ([3]; Panicum dichotomiflorum, post-emergence, Postemergence, 250 g ai/ha, scale 0 to 100, read-out: Plant response rating, Panicum, Fall): 0%
pest or weed control at 16 g/ha ([3]; Panicum dichotomiflorum, post-emergence, postemergence, 16 g ai/ha, scale 0 to 100, 0 no effect, 100 complete control, read-out: Plant response rating, Panicum, Fall): 0%
pest or weed control at 31 g/ha ([4]; Echinochloa crus-galli, post-emergence, Postemergence, 31 g ai/ha, scale 0 to 100, read-out: Plant response rating, Barnyardgrass): 0%
pest or weed control at 62 g/ha ([4]; Echinochloa crus-galli, post-emergence, Postemergence, 62 g ai/ha, scale 0 to 100, read-out: Plant response rating, Barnyardgrass): 0%
pest or weed control at 125 g/ha ([4]; Echinochloa crus-galli, post-emergence, Postemergence, 125 g ai/ha, scale 0 to 100, read-out: Plant response rating, Barnyardgrass): 0%
pest or weed control at 250 g/ha ([4]; Echinochloa crus-galli, post-emergence, Postemergence, 250 g ai/ha, scale 0 to 100, read-out: Plant response rating, Barnyardgrass): 0%
pest or weed control at 16 g/ha ([4]; Echinochloa crus-galli, post-emergence, postemergence, 16 g ai/ha, scale 0 to 100, 0 no effect, 100 complete control, read-out: Plant response rating, Barnyardgrass): 0%
pest or weed control at 31 g/ha ([5]; Commelina virginica, post-emergence, Postemergence, 31 g ai/ha, scale 0 to 100, read-out: Plant response rating, Dayflower, VA): 10%
pest or weed control at 62 g/ha ([5]; Commelina virginica, post-emergence, Postemergence, 62 g ai/ha, scale 0 to 100, read-out: Plant response rating, Dayflower, VA): 40%
pest or weed control at 125 g/ha ([5]; Commelina virginica, post-emergence, Postemergence, 125 g ai/ha, scale 0 to 100, read-out: Plant response rating, Dayflower, VA): 50%
pest or weed control at 250 g/ha ([5]; Commelina virginica, post-emergence, Postemergence, 250 g ai/ha, scale 0 to 100, read-out: Plant response rating, Dayflower, VA): 75%
pest or weed control at 16 g/ha ([5]; Commelina virginica, post-emergence, postemergence, 16 g ai/ha, scale 0 to 100, 0 no effect, 100 complete control, read-out: Plant response rating, Dayflower, VA): 5%
pest or weed control at 31 g/ha ([6]; Bidens pilosa, post-emergence, Postemergence, 31 g ai/ha, scale 0 to 100, read-out: Plant response rating, Beggarticks): 30%
pest or weed control at 62 g/ha ([6]; Bidens pilosa, post-emergence, Postemergence, 62 g ai/ha, scale 0 to 100, read-out: Plant response rating, Beggarticks): 40%
pest or weed control at 125 g/ha ([6]; Bidens pilosa, post-emergence, Postemergence, 125 g ai/ha, scale 0 to 100, read-out: Plant response rating, Beggarticks): 50%
pest or weed control at 250 g/ha ([6]; Bidens pilosa, post-emergence, Postemergence, 250 g ai/ha, scale 0 to 100, read-out: Plant response rating, Beggarticks): 80%
pest or weed control at 16 g/ha ([6]; Bidens pilosa, post-emergence, postemergence, 16 g ai/ha, scale 0 to 100, 0 no effect, 100 complete control, read-out: Plant response rating, Beggarticks): 10%

FC(F)(F)c1cnn(-c2ccccc2Oc2ncc(Cl)cn2)c1 [Compound 16]
Plant response rating, Waterhemp_RES2 [1, 7]: 50
Plant response rating, Waterhemp_RES2 [1, 8]: 60
Plant response rating, Waterhemp_RES2 [1, 9]: 70
Plant response rating, Waterhemp_RES2 [1, 10]: 85
Plant response rating, Waterhemp_RES2 [1, 11]: 25
Plant response rating, Waterhemp [2, 7]: 60
Plant response rating, Waterhemp [2, 8]: 85
Plant response rating, Waterhemp [2, 9]: 90
Plant response rating, Waterhemp [2, 10]: 90
Plant response rating, Waterhemp [2, 11]: 60
Plant response rating, Panicum, Fall [3, 7]: 0
Plant response rating, Panicum, Fall [3, 8]: 10
Plant response rating, Panicum, Fall [3, 9]: 20
Plant response rating, Panicum, Fall [3, 10]: 25
Plant response rating, Panicum, Fall [3, 11]: 0
Plant response rating, Barnyardgrass [4, 7]: 0
Plant response rating, Barnyardgrass [4, 8]: 0
Plant response rating, Barnyardgrass [4, 9]: 10
Plant response rating, Barnyardgrass [4, 10]: 15
Plant response rating, Barnyardgrass [4, 11]: 0
Plant response rating, Dayflower, VA [5, 7]: 10
Plant response rating, Dayflower, VA [5, 8]: 15
Plant response rating, Dayflower, VA [5, 9]: 30
Plant response rating, Dayflower, VA [5, 10]: 40
Plant response rating, Dayflower, VA [5, 11]: 0
Plant response rating, Beggarticks [6, 7]: 30
Plant response rating, Beggarticks [6, 8]: 50
Plant response rating, Beggarticks [6, 9]: 50
Plant response rating, Beggarticks [6, 10]: 60
Plant response rating, Beggarticks [6, 11]: 30

Clc1cnc(Oc2cccc(Br)c2-n2cc(Br)cn2)nc1 [Compound 65]
Plant response rating, Waterhemp_RES2 [1, 7]: 90
Plant response rating, Waterhemp_RES2 [1, 8]: 95
Plant response rating, Waterhemp_RES2 [1, 9]: 98
Plant response rating, Waterhemp_RES2 [1, 11]: 80
Plant response rating, Waterhemp [2, 7]: 70
Plant response rating, Waterhemp [2, 8]: 75
Plant response rating, Waterhemp [2, 9]: 95
Plant response rating, Waterhemp [2, 12]: 60
Plant response rating, Waterhemp [2, 11]: 50
Plant response rating, Panicum, Fall [3, 7]: 5
Plant response rating, Panicum, Fall [3, 8]: 0
Plant response rating, Panicum, Fall [3, 9]: 15
Plant response rating, Panicum, Fall [3, 12]: 0
Plant response rating, Panicum, Fall [3, 11]: 0
Plant response rating, Barnyardgrass [4, 7]: 0
Plant response rating, Barnyardgrass [4, 8]: 0
Plant response rating, Barnyardgrass [4, 9]: 0
Plant response rating, Barnyardgrass [4, 12]: 0
Plant response rating, Barnyardgrass [4, 11]: 0
Plant response rating, Dayflower, VA [5, 7]: 10
Plant response rating, Dayflower, VA [5, 8]: 10
Plant response rating, Dayflower, VA [5, 9]: 20
Plant response rating, Dayflower, VA [5, 12]: 5
Plant response rating, Dayflower, VA [5, 11]: 5
Plant response rating, Beggarticks [6, 7]: 40
Plant response rating, Beggarticks [6, 8]: 50
Plant response rating, Beggarticks [6, 9]: 50
Plant response rating, Beggarticks [6, 12]: 20
Plant response rating, Beggarticks [6, 11]: 35
